Results reported in PubChem BioAssay (NCI).
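Step 1: Grow cells in 96-well plates. Step 2: Expose to compound for 48 hours at 5 concentrations. Step 3: Interpolate endpoints linearly; if unreached, use highest concentration. TGI marks complete inhibition of growth.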

Tests used:
Test in all cases: growth of human tumour cells (NCI), 48 h
NCI-H226 lung = tested on: NCI-H226 lung
HOP-92 NSCLC = tested on: HOP-92 NSCLC
SF-539 CNS = tested on: SF-539 CNS
ACHN renal = tested on: ACHN renal
OVCAR-3 ovarian = tested on: OVCAR-3 ovarian
786-0 renal = tested on: 786-0 renal
MOLT-4 leukemia = tested on: MOLT-4 leukemia
HOP-62 NSCLC = tested on: HOP-62 NSCLC
SF-295 CNS = tested on: SF-295 CNS
SK-MEL-5 melanoma = tested on: SK-MEL-5 melanoma
U251 CNS = tested on: U251 CNS
HCC-2998 colon = tested on: HCC-2998 colon
DU-145 prostate = tested on: DU-145 prostate
OVCAR-4 ovarian = tested on: OVCAR-4 ovarian
UACC-257 melanoma = tested on: UACC-257 melanoma
T-47D breast = tested on: T-47D breast
TK-10 renal = tested on: TK-10 renal
MALME-3M melanoma = tested on: MALME-3M melanoma
UO-31 renal = tested on: UO-31 renal
SR leukemia = tested on: SR leukemia
HT29 colon = tested on: HT29 colon
SN12C renal = tested on: SN12C renal
RPMI-8226 leukemia = tested on: RPMI-8226 leukemia
SNB-19 CNS = tested on: SNB-19 CNS
NCI-H522 lung = tested on: NCI-H522 lung
SW-620 colon = tested on: SW-620 colon
SK-OV-3 ovarian = tested on: SK-OV-3 ovarian
HS 578T breast = tested on: HS 578T breast
SK-MEL-28 melanoma = tested on: SK-MEL-28 melanoma
UACC-62 melanoma = tested on: UACC-62 melanoma
MCF7 breast = tested on: MCF7 breast
A549 NSCLC = tested on: A549 NSCLC
IGROV1 ovarian = tested on: IGROV1 ovarian
NCI-H23 lung = tested on: NCI-H23 lung
M14 melanoma = tested on: M14 melanoma
NCI/ADR-RES ovarian = tested on: NCI/ADR-RES ovarian
OVCAR-5 ovarian = tested on: OVCAR-5 ovarian
HCT-15 colon = tested on: HCT-15 colon
COLO 205 colon = tested on: COLO 205 colon
BT-549 breast = tested on: BT-549 breast
SK-MEL-2 melanoma = tested on: SK-MEL-2 melanoma
PC-3 prostate = tested on: PC-3 prostate
KM12 colon = tested on: KM12 colon
MDA-MB-435 = tested on: MDA-MB-435
CCRF-CEM leukemia = tested on: CCRF-CEM leukemia
RXF 393 renal = tested on: RXF 393 renal
HCT-116 colon = tested on: HCT-116 colon
LOX IMVI melanoma = tested on: LOX IMVI melanoma
EKVX NSCLC = tested on: EKVX NSCLC
MDA-MB-231 breast = tested on: MDA-MB-231 breast
HL-60(TB) leukemia = tested on: HL-60(TB) leukemia
SF-268 CNS = tested on: SF-268 CNS
OVCAR-8 ovarian = tested on: OVCAR-8 ovarian
CAKI-1 renal = tested on: CAKI-1 renal

Measured: TGI

CCOC(=O)[C@@]1(C)CC(O)C(=O)N1C (some centres undefined)
> 100 µM: NCI-H226 lung | HOP-92 NSCLC | SF-539 CNS | ACHN renal | OVCAR-3 ovarian | 786-0 renal | MOLT-4 leukemia | HOP-62 NSCLC | SF-295 CNS | SK-MEL-5 melanoma | U251 CNS | HCC-2998 colon | DU-145 prostate | OVCAR-4 ovarian | UACC-257 melanoma | T-47D breast | TK-10 renal | MALME-3M melanoma | UO-31 renal | SR leukemia | HT29 colon | SN12C renal | RPMI-8226 leukemia | SNB-19 CNS | NCI-H522 lung | SW-620 colon | SK-OV-3 ovarian | HS 578T breast | SK-MEL-28 melanoma | UACC-62 melanoma | MCF7 breast | A549 NSCLC | IGROV1 ovarian | NCI-H23 lung | M14 melanoma | NCI/ADR-RES ovarian | OVCAR-5 ovarian | HCT-15 colon | COLO 205 colon | BT-549 breast | SK-MEL-2 melanoma | PC-3 prostate | KM12 colon | MDA-MB-435 | CCRF-CEM leukemia | RXF 393 renal | HCT-116 colon | LOX IMVI melanoma | EKVX NSCLC | MDA-MB-231 breast | HL-60(TB) leukemia | SF-268 CNS | OVCAR-8 ovarian | CAKI-1 renal
